Results reported in US9351951B2, “Prevention of proteomic and genomic damage by dicarbonyl substrates of Glo 1” (University of Warnick, priority 2010, dated 2016).

What was measured:
[1] = tested on: HepG2 cells; test: Frameshift mutation-dependent GFP reporter in HepG2 cells; type: cell-based, human; details: 400 μM MG
Procedure: The pEGFP-CA/T12 vector is a reporter for efficiency of transfection while pEGFP-CA13 vector is a reporter of frameshift mutation induced by MG.^30 HepG2 cells (2×10^5 cells/well) were cultured in 12-well plates for 24 h, the MEM medium removed, the cells washed with serum free medium and replaced with DNA/lipofectamine complexes in serum free medium—transfection medium (Lipofectamine 2000 reagent, 2 μl; (1.8 μg pEGFP-CA13 or pEGFP-CA/T12; 2.0 ml serum free medium)—and incubated for 5 h at 37° C. The transfection medium was removed and replaced with complete MEM medium supplemented with 10% FCS and 2 mM glutamine) and incubated for 48 h. Transfection efficiency was assessed quantitatively by flow cytometry. […] Thereafter, cells were washed with phosphate-buffered saline (PBS) and analysed for GFP expression by flow cytometry.

[2] = tested on: HepG2 cells; test: Growth inhibition of HepG2 cells by MG; type: cell-based; details: Homo sapiens, n=8, read-out: median growth inhibitory concentration
[3] = tested on: BJ fibroblasts; details: 2 μM SFN, after 48 h
[4] = tested on: GLO1 promoter (ARE1); details: ARE1 alone, HepG2 cells, 4 μM SFN 24 h
Procedure: Transfection and Luciferase Assay of Custom Vectors For luciferase assays, 2×10^5 HepG2 cells per well were plated into 24-well plates and cultured overnight. The cells were transfected with 0.5 μg reporter vector and 10 ng pRL-TK plasmid using Lipofectamine 2000 according to manufacture's protocol. The empty pGL3-basic vector was used as control. After 24 h, 4 μM SFN was added to the cells and vehicle (DMSO) added to control. After 24 h, the cells were washed with PBS and luciferase activity assay performed immediately or samples stored at −80° C. until analysis. For the reporter assay, 100 μl Cell Culture Lysis Reagent (CCLR, Promega) was added to cell extracts and shaken gently for 30 min. The activity mixture was centrifuged (12,000 g, 5 min, 4° C.) and an aliquot (20 μl) of supernatant used in the reporter assay. The luciferase activity was determined using a Dual Luciferase Reporter Assay System (Promega). The relative luciferase activities were normalized by co-transfection of pRL-TK vector.

[5] = tested on: HMEC-1 endothelial cells; details: collagen conditioned with medium from BJ cells incubated with 2 μM SFN for 24 h
Procedure: The culture medium was then removed, incubated with human type IV collagen for 24 h and human microvascular endothelial HMEC-1 cell attachment studied as described^13a. […] The medium was then removed and added to wells of a 96-well plate (96-well; Costar; Corning) that had be prior coated type IV collagen. For the coating, 100-□l of 100 µg/ml of type IV collagen (human placental, type IV, pepsin extracted) was added to each well and incubated for 24 h at 37° C. Wells were then washed with phosphate buffered saline. Collagen coated wells were incubated with medium from BK cell cultures for 24 h at 37° C. and then washed with phosphate buffered saline. HMEC-1 endothelial cells (2.5×10^4 cells/well) were plated on to the collagen substrates and incubated for 1 h at 37° C. Non-adherent cells were removed and adherent cells were quantified by staining with 3-(4,5-dimethylthiazole-2-yl)-2,5-diphenyltetrazolium bromide, lysed with dimethylsulfoxide and the blue formazan product detected, by absorbance at 560 nm (Paul, R G, Bailey, A J: The effect of advanced glycation end-product formation upon cell-matrix interactions. Int J Biochem Cell Biol 31: 653-660, 2004).

[6] = tested on: Glo1; test: Glo1 mRNA by real-time RT-PCR in cultured cells; type: cell-based, human; details: for induction of Glo1 expression: known nrf2 activators, data not shown
Procedure: (§1) Cell Culture Human hepatoma HepG2 cells and human BJ fibroblasts were cultured in Eagle's Minimum Essential Medium (MEM) medium with 10% foetal calf serum (FCS) and 2 mM glutamine under an atmosphere of 5% CO2 in air, 100% humidity and 37° C. Where sulforaphane was used, the R-stereoisomer was used. R-Sulforaphane (SFN) and allyl isothiocyanate (AITC) were purchased from Sigma-Aldrich (Poole, Dorset, UK).
Real-Time PCR Total RNA was extracted from cultured cells which were treated with SFN, AITC using RNeasy Mini Kit (QIAGEN). cDNAs were synthesized with oligo (dT)18 primer and BioScript reverse transcriptase (BIOLINE). Human GLO1 and ACTB (β-actin reference gene) mRNA were quantified by real-time RT-PCR SYBR green method on ABI 7500 fast real-time PCR system. The following primers were used to amplify GLO1, forward 5′-[…]-3′ (SEQ ID NO: 5) and reverse 5′-[…]-3′ (SEQ ID NO: 6). The reference gene ACTB was amplified with primers 5′-[…]-3′ SEQ ID NO: 7)(forward) and 5′-[…]-3′ (SEQ ID NO: 8)(reverse).

[7] = tested on: BJ fibroblasts
From the text: Normal ageing may be modelled in human cells in vitro by cell senescence.

[8] = tested on: HepG2 cells; details: 2 μM SFN
Procedure: (§2) Other Methods. Activity of Glo1 was determined by measuring the initial rate of isomerisation of the hemithioacetal formed from methylglyoxal and GSH to S-D-lactoylglutathione followed spectrophotometrically at 240 nm.^43 The concentration of MG in cells and culture medium was determined by stable isotopic dilution analysis liquid chromatography with tandem mass spectrometric detection.^4 ROS formation was assessed with dichlorodihydrofluorescein diacetate (H2DCFDA), monitoring the generation of dichlorofluorescein (DCF) fluorescence. HepG2 cells and BJ fibroblasts were incubated with H2DCFDA for 30 min, washed in PBS and DCF fluorescence quantified by flow cytometry.^44

[9] = tested on: methylglyoxal; details: 24 h post-treatment
Procedure: as §2

[10] = tested on: Glo1; details: 2 μM SFN, over 16 h, BJ fibroblasts
Procedure: as §1

[11] = tested on: BJ fibroblasts; test: cells; details: Homo sapiens, Fibroblast, 24 h, read-out: cell viability during exposure to hydrogen peroxide
[12] = tested on: BJ fibroblasts; details: scavenging of MG; reference 28; cited from earlier work
[13] = in vitro; details: human, BJ fibroblasts

## C=CCN=C=S [AITC, allyl isothiocyanate]
[1]; prior 2 μM AITC
  frameshift mutations induced by MG: prevented
[1]; prior exposure to 2 μM AITC
  frameshift mutation-dependent GFP induced by MG: prevented

## CC(=O)C=O [MG, methylglyoxal]
[2]
  IC50: 1.07 ± 0.08 mM
[1]
  frameshift mutation-dependent GFP: increased
  frameshift mutations: increased

## C[S@@+]([O-])CCCCN=C=S [SFN, R-Sulforaphane]
[3]
  cellular protein MG-H1 residue content: decrease
[4]
  Glo1 transcriptional response of luciferase reporter: maximal induction
[5]
  HMEC-1 endothelial cell adhesion to type IV collagen: Improved
[6]; 2 μM SFN time course, BJ fibroblasts
  time post-treatment at which Glo1 mRNA maximised: 12 h
[6]; dose response, BJ fibroblasts
  Glo1 mRNA: dose-dependent increase
[7]; BJ cells, 1.0 μM SFN per passage from cumulative PDL 30
  effect on Hayflick limit: allowed escape from the Hayflick limit
[7]; BJ cells, 2×0.5 μM SFN per passage from cumulative PDL 45, control limit PDL 49
  Hayflick limit, cumulative PDL: 50.5
[7]; BJ fibroblasts, 1.0 μM SFN per passage, beyond cumulative PDL 53
  increase in cell number per passage: > 3 fold
[8]
  endogenous ROS: decrease
[8]; 20 μM hydrogen peroxide
  ROS induced by exogenous hydrogen peroxide: decrease
[9]; HepG2 culture medium
  concentration of methylglyoxal in the cell culture: marked decrease
[9]; BJ fibroblasts, 2 μM SFN
  concentration of MG in cells: decreased concentration
  concentration of MG in the cell culture medium: decreased concentration
[10]
  Glo1 protein: increase in Glo1 protein progressively
[11]
  viability at 0.5 µM: 88%

## N=C(N)NN [aminoguanidine]
[12]
  effect on cytotoxicity induced by exogenous hydrogen peroxide in vitro: protective

## C=CCSSCC=C [diallyldisulphide]
[6]
  induction of Glo1 expression: not potent inducers

## OO [hydrogen peroxide]
[13]
  viability at 200 μM: 74%

## OCc1c[nH]c2ccccc12 [indole-3-carbinol]
[6]
  induction of Glo1 expression: not potent inducers

## CC(C)(C)c1cc(O)ccc1O [tert-butylhydroquinone]
[6]
  induction of Glo1 expression: not potent inducers
